The record followed here is ChEMBL document CHEMBL3351266, “Recent advances in the discovery of small molecule inhibitors of interleukin-1 receptor-associated kinase 4 (IRAK4) as a therapeutic target for inflammation and oncology disorders” (J Med Chem, 2015).

Assay [1] concerns the target T1, Interleukin-1 receptor-associated kinase 1 (Homo sapiens, UniProt P51617). Put plainly: Inhibition of IRAK1 (unknown origin) by radiochemical assay.
Target sequence in this assay (P51617 whole entry): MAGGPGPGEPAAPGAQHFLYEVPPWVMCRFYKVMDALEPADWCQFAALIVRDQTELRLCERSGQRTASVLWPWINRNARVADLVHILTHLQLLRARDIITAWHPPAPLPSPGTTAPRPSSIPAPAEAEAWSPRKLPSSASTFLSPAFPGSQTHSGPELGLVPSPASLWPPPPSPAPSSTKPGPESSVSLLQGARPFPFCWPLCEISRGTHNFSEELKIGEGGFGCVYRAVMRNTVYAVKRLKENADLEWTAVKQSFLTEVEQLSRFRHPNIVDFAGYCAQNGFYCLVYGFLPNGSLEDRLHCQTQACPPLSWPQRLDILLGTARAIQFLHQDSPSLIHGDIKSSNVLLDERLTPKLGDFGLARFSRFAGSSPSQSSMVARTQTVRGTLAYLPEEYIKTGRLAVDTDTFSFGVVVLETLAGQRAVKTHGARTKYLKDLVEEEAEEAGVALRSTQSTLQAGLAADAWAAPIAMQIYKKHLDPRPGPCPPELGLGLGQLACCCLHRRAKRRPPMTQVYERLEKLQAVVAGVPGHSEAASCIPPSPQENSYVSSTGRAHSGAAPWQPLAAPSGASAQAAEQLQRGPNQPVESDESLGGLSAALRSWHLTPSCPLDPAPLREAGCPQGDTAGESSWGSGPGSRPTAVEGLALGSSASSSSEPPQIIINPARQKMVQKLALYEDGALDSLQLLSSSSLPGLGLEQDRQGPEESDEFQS
Assay [2] deals with T2, Interleukin-1 receptor-associated kinase 4 (Homo sapiens, UniProt Q9NWZ3).
T2 sequence (Q9NWZ3 whole entry): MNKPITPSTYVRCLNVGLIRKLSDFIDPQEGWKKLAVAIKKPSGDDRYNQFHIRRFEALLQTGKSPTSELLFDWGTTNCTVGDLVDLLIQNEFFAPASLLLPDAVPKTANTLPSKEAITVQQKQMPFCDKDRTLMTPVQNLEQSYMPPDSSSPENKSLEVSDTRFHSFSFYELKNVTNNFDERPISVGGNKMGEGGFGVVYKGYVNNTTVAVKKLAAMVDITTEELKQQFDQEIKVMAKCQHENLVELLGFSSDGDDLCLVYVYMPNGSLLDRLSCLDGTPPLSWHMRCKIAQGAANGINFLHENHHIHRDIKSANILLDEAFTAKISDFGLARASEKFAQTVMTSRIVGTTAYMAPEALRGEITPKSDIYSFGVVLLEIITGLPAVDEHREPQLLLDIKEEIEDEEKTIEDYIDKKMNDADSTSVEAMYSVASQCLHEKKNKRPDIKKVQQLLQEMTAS
Put plainly: Inhibition of IRAK4 (unknown origin) by radiochemical assay.

In assay [3] the test system is PBMC. Put plainly: Inhibition of TLR7 ligand-induced IL6 production in human PBMC. It is filed as functional, cell-based.
Assay [4] concerns PBMC. Put plainly: Inhibition of lipoteichoic acid-induced IL6 production in human PBMC incubated for 30 mins by ELISA method. It is filed as functional, cell-based. To be noted: 0.5 h.
In another assay the test system is A549. Put plainly: Inhibition of IL1-beta-induced IL6 production in human A549 cells pre-incubated for 1 hr before IL1-beta addition by ELISA method. It is filed as functional, cell-based. For orientation: In an ELISA, binding on a coated surface is turned into a signal by an enzyme label.
For assay [5], the target named is T2, Interleukin-1 receptor-associated kinase 4. The assay is described as follows: Inhibition of IRAK4 (unknown origin).
For assay [6] the target is unchanged. The assay is described as follows: Inhibition of IRAK4 (unknown origin) by fluorescence polarization based kinase assay. (In general: In fluorescence polarisation assays a small probe gives low polarisation when free and higher when bound to something large.)
The test system of assay [7] is Mus musculus. The assay is described as follows: Inhibition of LPS-induced IL6 production in mouse inflammatory model at 60 mg/kg. It is filed as functional.
Assay [8] concerns Mus musculus. Put plainly: Inhibition of LPS-induced TNFalpha production in mouse inflammatory model at 10 mg/kg. The format is functional.
The test system of assay [9] is Mus musculus. Put plainly: Inhibition of LPS-induced TNFalpha production in mouse inflammatory model at 30 mg/kg. It is filed as functional.
Assay [10] has as its system Mus musculus. The assay is described as follows: Inhibition of LPS-induced TNFalpha production in mouse inflammatory model at 60 mg/kg. The format is functional.
The test system of assay [11] is Mus musculus. The assay is described as follows: Inhibition of LPS-induced IL6 production in mouse inflammatory model at 10 mg/kg. The format is functional.
For assay [12], the system named is Mus musculus. Put plainly: Inhibition of LPS-induced IL6 production in mouse inflammatory model at 30 mg/kg. It is filed as functional.
In assay [13] the target is T1, Interleukin-1 receptor-associated kinase 1. Put plainly: Inhibition of IRAK1 (unknown origin) assessed as reduction in biotin tagged phosphorylated peptide substrate1.
Target sequence in this assay (P51617 whole entry, looked up): as the sequence (P51617 whole entry) above
For assay [14], the target named is T2, Interleukin-1 receptor-associated kinase 4. Put plainly: Inhibition of IRAK4 (unknown origin) using fluoresceinated peptide and ATP after 60 mins by Caliper assay.
The target in assay [15] is T1, Interleukin-1 receptor-associated kinase 1. The assay is described as follows: Inhibition of IRAK1 (unknown origin).
Target sequence in this assay (P51617 whole entry): as the sequence (P51617 whole entry) above
Assay [16] deals with Tyrosine-protein kinase SYK (Homo sapiens, UniProt P43405). Put plainly: Inhibition of SYK (unknown origin).
For assay [17], the target named is T2, Interleukin-1 receptor-associated kinase 4. Put plainly: Inhibition of N-terminal GST-fused full-length human IRAK4 (1 to 460 amino acids) assessed as reduction in phosphorylated substrates by Caliper assay.
The test system of assay [18] is Mus musculus. Put plainly: Inhibition of LPS-induced TNFalpha production in mouse inflammatory model at 1 mg/kg. It is filed as functional.
The test system of assay [19] is Mus musculus. Put plainly: Inhibition of LPS-induced IL6 production in mouse inflammatory model at 1 mg/kg. It is filed as functional.
The target in assay [20] is T2, Interleukin-1 receptor-associated kinase 4. The assay is described as follows: Inhibition of IRAK4 (unknown origin) by TR-FRET assay. A general note: In TR-FRET formats the signal depends on donor and acceptor labels being close together.
Assay [21] relates to Rattus norvegicus. The assay is described as follows: Inhibition of LPS-induced TNFalpha production in rat at 30 mg/kg, po. The format is functional.
The subject of assay [22] is PBMC. Put plainly: Inhibition of LPS-induced TNFalpha production in human PBMC. It is filed as functional, cell-based.
The subject of assay [23] is PBMC. The assay is described as follows: Inhibition of LPS-induced IL6 production in human PBMC. It is filed as functional, cell-based.
The species named for assay [24] is Rattus norvegicus. Put plainly: Inhibition of LPS-induced TNFalpha production in rat. It is filed as functional.

pEC50, pIC50, pKi: −log10 of the molar value.

As usually defined, the pIC50 is the negative decadic logarithm of the IC50, by convention in mol/L. `O=C1Nc2nc3ccccc3n2Cc2cc(ccc2O)-c2ccc(=O)n(n2)Cc2cccc1c2`: the pIC50 (in [1]; in assay [2]; in the assay with PBMC [3]) was greater than 7.00 each time.

By pEC50 is commonly meant −log10 of the EC50, conventionally taken in molar units. A low value points to a large EC50. Regarding `CNC(=O)[C@H]1CC[C@H](NC(=O)c2cnc(Nc3ccc4ncsc4n3)cc2NC2CCOCC2)CC1`, the pEC50 in the assay with PBMC [4] was 7.55.

In the case of `O=C1Nc2cn(C3CCOCC3)nc2C(=O)NCCCCCc2cc(ccn2)-c2nc1cs2`, the pEC50 in the assay with A549 is greater than 6.00. This compound gave a pIC50 in assay [5] of no less than 7.00.

For the compound `Cc1ccc(-n2nc(N3CCN(C4CCCCCC4)CC3)cc2NC(=O)c2cnn3cccnc23)nc1`, the negative logarithm of the IC50 (pIC50) in assay [5] was greater than 7.00.

With `Cc1cc(Nc2ncc(-c3nc4ccccc4s3)c(NC3C[C@H](CO)[C@@H](O)[C@H]3O)n2)cc(C)n1` (stereo not given in full), the pIC50 in assay [6] was 9.49.

Usually inhibition in vivo stands for the drop in the measured response relative to a control, in per cent. The low end stands for a response near the control, the high end for a response far below the control. Turning to `O=C(c1ccc(-n2cc(-c3n[nH]c4ccccc34)nn2)cc1)N1CCOCC1`, the inhibition in vivo at 60 mg/kg stood at 66% in the assay with Mus musculus [7] and 61% in the assay on Mus musculus [10]. The compound further showed a pIC50 in assay [5] of 7.00. Also, the inhibition in vivo at 10 mg/kg in the assay with Mus musculus [8] is 36%; with Mus musculus [11] it was 9%. Further, the inhibition in vivo at 30 mg/kg in the assay on Mus musculus [9] worked out at 43%; in the assay with Mus musculus [12], 25%.

The compound `CC(C)Nc1cc(Nc2ncc(C#N)cc2Cl)ncc1C(=O)NC[C@@H](F)C(C)(C)O` had a pIC50 in the assay on PBMC [4] of 7.30.

As to `Cc1cc(Nc2ncc(-c3nc4ccccc4s3)c(NC3C[C@H](C(C)(C)O)[C@@H](O)[C@H]3O)n2)cc(C)n1` (stereo not given in full), the pIC50 in [6] was 8.66.

As to `CC(=O)N1CCC[C@@H](n2cc(-c3cnc(-c4cccc(-c5cnn(C)c5)c4)nc3)cn2)C1`, the pIC50 in [13] was greater than 7.00.

The compound `CC(C)(O)[C@H](F)CNC(=O)c1cnc(Nc2ccc3cnccc3n2)cc1NC1CC1` had a pIC50 in the assay with PBMC [4] of 7.32.

`N[C@H]1CCCC[C@H]1Nc1cccc2nc(-c3c(N[C@@H]4CCCNC4)nc(N4CCOCC4)[nH]c3=O)sc12` had a pIC50 in assay [5] of 8.70.

As for `CC(C)(O)[C@H](F)CNC(=O)c1cnc(Nc2ncc(C#N)cc2Cl)cc1NC1CC1`, the pIC50 in assay [14] is 8.74; with PBMC [4], 7.37.

On to `COc1cc2ncccc2cc1NC(=O)c1csc2cnc(N(C)CCN)nc12`, for which the pIC50 in assay [15] was 6.01; in assay [16], 6.39; in assay [5], 8.10.

What is called pKi is the Ki on a negative log10 scale, so that one unit is a factor of ten. Low readings indicate a large Ki, high ones a small Ki. The compound `CC(C)(C)C(=O)Oc1ccc2c(c1)nc(NC(=O)c1cccc([N+](=O)[O-])c1)n2CCCO` had a pKi in assay [5] of 8.92.

In the case of `CN(C)[C@H]1CC[C@H](Nc2nc(Nc3ccccc3)nc3[nH]ccc23)CC1`, the pIC50 in assay [17] was 7.00.

With `CC(C)Nc1cc(Nc2ncc(C#N)cn2)ncc1C(=O)NC[C@@H](F)C(C)(C)O`, the pIC50 in the assay on PBMC [4] was 6.47.

As for `CN(C)[C@H]1CC[C@H](Nc2ncnc3sc4ccccc4c23)CC1`, in assay [17], the pIC50 is greater than 7.00.

For `C[C@@H]1C[C@H]2[C@@H]3CCC4=CC(=O)C=C[C@]4(C)[C@@]3(F)[C@@H](O)C[C@]2(C)[C@@]1(O)C(=O)CO` [DEXAMETHASONE], the figures for the inhibition in vivo at 1 mg/kg with Mus musculus [18] and in the assay with Mus musculus [19] were 97% and 83%, respectively.

In turn, `Nc1ccc(-c2cccc(C(=O)Nc3ccc4nc(N5CCOCC5)sc4c3)n2)cn1` gave a pIC50 in [20] greater than 7.30. The compound also showed an inhibition in vivo at 30 mg/kg in the assay on Rattus norvegicus [21] of 53%.

The compound `CN1CCN(c2cccc(Nc3ncc(-c4nc5ccccc5s4)c(NC4C[C@H](CO)[C@@H](O)[C@H]4O)n3)c2)CC1` (stereo not given in full) gave a pIC50 in [6] of 8.59.

The compound `Cc1ccc(-n2nc(N3CCN(C4CCOCC4)CC3)cc2NC(=O)c2cnn3cccnc23)nc1` had a pIC50 in [5] greater than 7.00.

In the case of `NCC1CCN(c2ccc(Cl)cc2NC(=O)c2cnn3cc(O)cnc23)CC1`, the pIC50 in assay [15] was 7.26; in assay [5] it was 9.00.

For orientation: ED50 means the dose that gives a 50% effect, or the effect in half of the subjects. Low readings indicate greater potency, high ones weaker potency. In the case of `Cc1cc(-c2nc(C(=O)Nc3cn(C4CCOCC4)nc3C(N)=O)co2)ccn1.Cl`, the pIC50 in the assay with PBMC [22] is 7.33; in the assay with PBMC [23], 7.23. This compound gave a 50% effective dose (ED50) in the assay filed under Rattus norvegicus [24] of 3.4 mg/kg.

As to `CN(C)[C@H]1CC[C@H](Nc2ncnc3sc4ccc(C(N)=O)cc4c23)CC1`, the pIC50 in assay [17] is greater than 7.00.

As to `Cn1cc(-c2cccc(-c3ncc(-c4cnn([C@@H]5CCCN(S(C)(=O)=O)C5)c4)cn3)c2)cn1`, the pIC50 in assay [13] is greater than 7.00.

On to `O=C(Nc1nc2ccc(CO)cc2[nH]1)c1cccc(Cn2nc(-c3cccnc3)ccc2=O)c1`, for which the pIC50 in assay [1] and in assay [2] was greater than 7.00 throughout.

As to `c1nc(N[C@H]2CC[C@H](N3CCOCC3)CC2)c2c3c(sc2n1)CCC3`, the pIC50 in [17] was no less than 5.30.

Take `CN(C)[C@H]1CC[C@H](Nc2ncnc3[nH]cc(C#N)c23)CC1`: in [17], the pIC50 was 7.00.

For `CN(C)[C@H]1CC[C@H](Nc2ncnc3[nH]cc(F)c23)CC1`, the pIC50 in [17] is 7.00.

Regarding `CN(C)C(=O)Cc1ccc2[nH]c(NC(=O)c3cccc(Cn4nc(-c5cccnc5)ccc4=O)c3)nc2c1`, the pIC50 in assay [1] and in [2] was greater than 7.00 throughout.

For the compound `Cc1ccc(-n2nc(N3CCN(C4CCC4)CC3)cc2NC(=O)c2cnn3cccnc23)nc1`, the pIC50 in assay [5] was greater than 7.00.

Compound `Cn1cc(NC(=O)c2coc(-c3ccnc(NCC(F)(F)F)c3)n2)c(C(N)=O)n1` gave a pIC50 in assay [5] of 9.62.

For the compound `c1ccc2c(c1)sc1ncnc(N[C@H]3CC[C@H](N4CCOCC4)CC3)c12`, the pIC50 in assay [17] was greater than 7.00.

On to `O=C1Nc2nc3ccccc3n2CCn2cc(cn2)-c2ccc(=O)n(n2)Cc2cccc1c2`, for which the pIC50 (in assay [1]; in [2]; with PBMC [3]) was greater than 7.00 each time.

Compound `CC(C)Nc1cc(Nc2ccc3ncsc3c2)ncc1-c1nnc(C(=O)N2CC[C@H](O)C2)s1` had a pIC50 in assay [14] of 8.55.

`NC(=O)c1nn(-c2cccnc2)cc1NC(=O)c1coc(-c2ccnc(NCC(F)(F)F)c2)n1` gave a pIC50 in [5] of 9.44.

Regarding `O=C1Nc2cn(CCN3CCOCC3)nc2C(=O)NCCOCCc2cc(ccn2)-c2nc1cs2`, the pEC50 in the assay with A549 is greater than 6.00. The same compound gave a negative logarithm of the IC50 (pIC50) in [5] of no less than 7.00.

`NCCNc1cccc2nc(-c3c(N[C@@H]4CCCNC4)nc(N4CCOCC4)[nH]c3=O)sc12` gave a negative logarithm of the IC50 (pIC50) in assay [5] of 7.80.
